The text below walks through data of patent US6476018B1, “Fused imidazole derivatives as multidrug resistance modulators” (Janssen Pharmaceutica N.V., priority 1996, dated 2002).

For this assay, the system named is P388/ADR (adriamycine resistance cell line) murine leukemia. The experiment in a line: MDR in vivo test: reversal of adriamycine resistance in P388/ADR murine leukemia (survival). As to conditions: P388/ADR mice, daily i.p. day 1-10. The protocol:
Male B6D2F1 mice (18-21 g) were injected intraperitoneally with 1×10^5 P388/ADR cells at day 0. Daily intraperitoneal treatment with adriamycine, a test compound of formula (I) or a combination of both was installed from day 1 until day 10. Control animals received the vehicle (15% 4-OH-propyl-β-cyclodextrine in saline). Each group consisted of 8 animals. Adriamycine was dosed at a concentration of 1.25 mg/kg body weight, half the maximal tolerable dose of adriamycine in this treatment schedule. The test compound was dosed at 20, 10, 5, 2.5, 1.25 and 0.63 mg/kg either as single treatment or combined with adriamycine.
Survival of the animals was recorded each day and expressed as a percentage of the median survival in the treated groups compared to the median survival in the control group, the latter to be said to be 100%.
Table C-1 lists the effect of compound 6 and adriamycine on the survival of mice injected with P388/ADR leukemia.
doses of compound 6 and adriamycine are expressed as mg/kg body weight.
the column “Survival Days” give the median day of death after inoculation of 1×10^5 P388/ADR cells at day 0, with the minimum and maximum number of days shown in parantheses
column “% Change vs. ADR” give the difference in MST % of the different groups compared to the MST % in the adriamycine-monotherapy group.

Turning to `COc1cccc2c1C(=O)c1c(O)c3c(c(O)c1C2=O)C[C@@](O)(C(=O)CO)C[C@@H]3O[C@H]1C[C@H](N)[C@H](O)[C@H](C)O1` [Adriamycine, adriamycine, reference compound], the “Survival Days med (min-max)” value (compound 6 0 mg/kg, adriamycine 1.25 mg/kg) is on record as 13 (12-15) days.

In the case of `COC(=O)c1cnc2n1CCc1ccccc1C2=C1CCN(CCc2ccc(OCc3ccc4ccccc4n3)cc2)CC1` [Compound 6, methyl 6,11-dihydro-11-[1-[2-[4-(2-quinolinylmethoxy)phenyl]ethyl]-4-piperidinylidene]-5H-imidazo[2,1-b][3]-benzazepine-3-carboxylate], where the note is “compound 6 5 mg/kg, adriamycine 0 mg/kg”, the “Survival Days med (min-max)” value is recorded as 11.5 (10-13) days. In addition, the MST % (compound 6 20 mg/kg, adriamycine 0 mg/kg, control = 100%) was 1oo.
